Earlier results in US20190358240A1, “HIV TREATMENT FORMULATION OF ATAZANAVIR AND COBICISTAT” (BRISTOL-MYERS SQUIBB COMPANY, priority 2013, published 2019).

Conditions: human, in vivo

COC(=O)N[C@H](C(=O)N[C@@H](Cc1ccccc1)[C@@H](O)CN(Cc1ccc(-c2ccccn2)cc1)NC(=O)[C@@H](NC(=O)OC)C(C)(C)C)C(C)(C)C [Atazanavir, methyl N-[(1S)-1-{[(2S,3S)-3-hydroxy-4-[(2S)-2-[(methoxycarbonyl)amino]-3,3-dimethyl-N′-{[4-(pyridin-2-yl)phenyl]methyl}butanehydrazido]-1-phenylbutan-2-yl]carbamoyl}-2,2-dimethylpropyl]carbamate]
Accumulation at steady state: 2-3 fold
Time to steady state: 4 to 8 days
Tmax: ~2.5 h
